In patent US10053468B2, “Heterocyclic compound” (TAKEDA PHARMACEUTICAL COMPANY LIMITED, priority 2013, dated 2018) one finds inhibition data, which are given here for 15 molecules.

Like-named read-outs stand apart in the source and are kept apart here.

Assay [1] deals with T1, RORγt (Homo sapiens, UniProt P51449).
T1 sequence (P51449 1-497 isoform P51449-2): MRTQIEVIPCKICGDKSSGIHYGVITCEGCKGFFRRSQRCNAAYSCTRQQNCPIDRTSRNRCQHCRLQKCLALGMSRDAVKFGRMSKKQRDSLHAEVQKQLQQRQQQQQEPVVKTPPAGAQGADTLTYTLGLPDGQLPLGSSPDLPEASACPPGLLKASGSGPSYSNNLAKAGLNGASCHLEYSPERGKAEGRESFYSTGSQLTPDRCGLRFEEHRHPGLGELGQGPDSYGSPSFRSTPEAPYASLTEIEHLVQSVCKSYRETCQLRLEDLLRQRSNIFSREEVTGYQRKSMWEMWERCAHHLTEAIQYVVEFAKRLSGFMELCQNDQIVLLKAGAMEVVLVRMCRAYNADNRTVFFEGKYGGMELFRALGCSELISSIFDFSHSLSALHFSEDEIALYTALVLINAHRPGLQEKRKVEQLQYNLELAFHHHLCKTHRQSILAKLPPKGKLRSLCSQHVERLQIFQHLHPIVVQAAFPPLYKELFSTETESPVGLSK
Nature of the assay: Jurkat reporter test (human IL-17 ROR response element luciferase, RORγt vector). In kind it is cell-based. Particulars: read-out: Luminescence level inhibitory rate at test compound 3 μM (%). Summed up:
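Luminescence (Bright-Glo, 10 min, RT) was measured after overnight compound treatment of electroporated Jurkat cells (1350 V, 10 ms interval, 3 pulses). The reaction medium was RPMI with 10% lipid-reduced FCS, 10 mM HEPES (pH 7.5) and 5 μM lovastatin.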

Assay [2] has as its target T1, RORγt. Nature of the assay: RORγt binding test using fluorescent-labeled cholesterol (TR-FRET). Particulars: read-out: Binding inhibitory rate of fluorescent-labeled cholesterol to RORγt at test compound 1 μM (%). Summed up: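 After 20 min at room temperature with His-tagged RORγt and BODIPY-cholesterol in pH 7.5 Tris buffer (NaCl, DTT, BSA), compound wells got terbium anti-His antibody for another 20 min. Time-resolved FRET was read with excitation 320 nm, emission 520 nm and a 100 µs delay.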
In general terms: TR-FRET usually uses a lanthanide donor and a delayed reading to cut background.

Assay [3] concerns the target T1, RORγt. In words: Cofactor recruitment test (Alpha Screen, biotinylated SRC-1 peptide). In kind it is biochemical. Particulars: read-out: Signal value inhibitory rate at test compound 1 μM (%). How it is done:
Cofactor Recruitment Test
Cofactor recruitment test was performed by Alpha Screen (Histidine Detection Kit, PerkinElmer) method. First, a test compound was diluted with an assay buffer (50 mM Tris-HCl (pH 7.5), 50 mM KCl, 1 mM DTT, 0.1% BSA) and added to a 384 well plate by 5 μL. […] The mixture was stood in a dark place for 1 hr, and the signal value was measured by Envision (PerkinElmer).

For assay [4], the target named is T1, RORγt. In words: RORγt binding test using fluorescent-labeled synthetic ligand (TR-FRET). Particulars: read-out: Binding inhibitory rate of fluorescent-labeled synthetic ligand to RORγt at test compound 1 μM (%). Summed up: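 His-tagged RORγt (diluted to 240 nM) with compound, then fluorescent synthetic ligand (diluted to 12 μM), 20 min at room temperature, followed by Tb anti-His antibody (diluted to 8 nM), 20 min.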

[5] abbreviates: test compound 3 μM, Jurkat cells.

Consider `COCc1ccc2c(c1)CCN(C(=O)Cc1cc(O)no1)[C@H]2C(=O)Nc1cc(F)c([Si](C)(C)C)c(F)c1` [Example 121, (1R)-N-(3,5-difluoro-4-(trimethylsilyl)phenyl)-2-((3-hydroxy-1,2-oxazol-5-yl)acetyl)-6-(methoxymethyl)-1,2,3,4-tetrahydroisoquinoline-1-carboxamide], for which the inhibition at 3 µM on RORγt [1] (Jurkat) worked out at 103%. Also, the results for the inhibition at 1 µM on RORγt [2], at RORγt [3] and on RORγt [4] were 101%, 100% and 101%, respectively.

As to `CCOc1ccc2c(n1)CCN(C(=O)c1cc(O)no1)[C@H]2C(=O)Nc1cc(F)c([Si](C)(C)C)c(F)c1` [Example 126, (5R)-N-(3,5-difluoro-4-(trimethylsilyl)phenyl)-2-ethoxy-6-((3-hydroxy-1,2-oxazol-5-yl)carbonyl)-5,6,7,8-tetrahydro-1,6-naphthyridine-5-carboxamide], the inhibition at 3 µM on RORγt [1] (Jurkat) is 102%. Moreover, the inhibition at 1 µM at RORγt [2] worked out at 101%; at RORγt [3] it was 100%; at RORγt [4], 101%.

In the case of `CCOc1ccc2c(n1)CCN(C(=O)CCCC(=O)O)[C@H]2C(=O)Nc1cc(F)c([Si](C)(C)C)c(F)c1` [Example 129, 5-((5R)-5-((3,5-difluoro-4-(trimethylsilyl)phenyl)carbamoyl)-2-ethoxy-7,8-dihydro-1,6-naphthyridin-6(5H)-yl)-5-oxopentanoic acid], the inhibition at 3 µM on RORγt [1] (Jurkat) was found to be 102%. In addition, the inhibition at 1 µM is 98% at RORγt [2], 99% at RORγt [3] and 101% at RORγt [4].

Turning to `COCc1ccc2c(c1)CCN(C(=O)CCCC(=O)O)[C@H]2C(=O)Nc1cc(F)c([Si](C)(C)C)c(F)c1` [Example 130, 5-((1R)-1-((3,5-difluoro-4-(trimethylsilyl)phenyl)carbamoyl)-6-(methoxymethyl)-3,4-dihydroisoquinolin-2(1H)-yl)-5-oxopentanoic acid], the inhibition at 3 µM at RORγt [1] (Jurkat) was determined as 104%. Further, the figures for the inhibition at 1 µM on RORγt [2], on RORγt [3] and at RORγt [4] were 102%, 100% and 102%, respectively.

As to `COCc1ccc2c(c1)CCN(C(=O)c1cc(O)no1)[C@H]2C(=O)Nc1cc(F)c([Si](C)(C)C)c(F)c1` [Example 131, (1R)-N-(3,5-difluoro-4-(trimethylsilyl)phenyl)-2-((3-hydroxy-1,2-oxazol-5-yl)carbonyl)-6-(methoxymethyl)-1,2,3,4-tetrahydroisoquinoline-1-carboxamide], the inhibition at 3 µM at RORγt [1] (Jurkat) was found to be 103%. Moreover, the inhibition at 1 µM at RORγt [2] amounted to 103%; on RORγt [3] it was 100%; on RORγt [4] it was 101%.

With `COCc1ccc2c(c1)CCN(C(=O)Cc1cc(O)no1)[C@H]2C(=O)Nc1ccc(C(C)(C)C)c(F)c1` [Example 132, (1R)-N-(4-tert-butyl-3-fluorophenyl)-2-((3-hydroxy-1,2-oxazol-5-yl)acetyl)-6-(methoxymethyl)-1,2,3,4-tetrahydroisoquinoline-1-carboxamide], the inhibition at 3 µM at RORγt [1] (setting [5]) was determined as 104%. Further, the results for the inhibition at 1 µM on RORγt [2], on RORγt [3] and on RORγt [4] were 100%, 98% and 102%, respectively.

With `COCc1ccc2c(c1)CCN(C(=O)c1cc(O)no1)[C@H]2C(=O)Nc1cc(F)c2c(c1)CCC2(C)C` [Example 133, (1R)-N-(7-fluoro-1,1-dimethyl-2,3-dihydro-1H-inden-5-yl)-2-((3-hydroxy-1,2-oxazol-5-yl)carbonyl)-6-(methoxymethyl)-1,2,3,4-tetrahydroisoquinoline-1-carboxamide], the inhibition at 3 µM at RORγt [1] (setting [5]) stood at 103%. Further, the inhibition at 1 µM is 103% on RORγt [2], 96% at RORγt [3] and 101% at RORγt [4].

In the case of `COCc1ccc2c(n1)CCN(C(=O)c1cc(O)no1)[C@H]2C(=O)Nc1cc(F)c([Si](C)(C)C)c(F)c1` [Example 136, (5R)-N-(3,5-difluoro-4-(trimethylsilyl)phenyl)-6-((3-hydroxy-1,2-oxazol-5-yl)carbonyl)-2-(methoxymethyl)-5,6,7,8-tetrahydro-1,6-naphthyridine-5-carboxamide], the inhibition at 3 µM at RORγt [1] (Jurkat) turned out to be 103%. In addition, the values for the inhibition at 1 µM at RORγt [2], at RORγt [3] and at RORγt [4] were 100%, 97% and 102%, respectively.

Regarding `COCc1ccc2c(c1)CCN(C(=O)c1cc(O)no1)[C@H]2C(=O)Nc1cc(F)c(C(C)(C)COC)c(F)c1` [Example 137, (1R)-N-(3,5-difluoro-4-(1-methoxy-2-methylpropan-2-yl)phenyl)-2-((3-hydroxy-1,2-oxazol-5-yl)carbonyl)-6-(methoxymethyl)-1,2,3,4-tetrahydroisoquinoline-1-carboxamide], the inhibition at 3 µM at RORγt [1] (setting [5]) stood at 103%. The inhibition at 1 µM is 102% at RORγt [2], 98% on RORγt [3] and 102% on RORγt [4].

As to `COCc1ccc2c(n1)CCN(C(=O)Cc1cc(O)no1)[C@H]2C(=O)Nc1cc(F)c([Si](C)(C)C)c(F)c1` [Example 138, (5R)-N-(3,5-difluoro-4-(trimethylsilyl)phenyl)-6-((3-hydroxy-1,2-oxazol-5-yl)acetyl)-2-(methoxymethyl)-5,6,7,8-tetrahydro-1,6-naphthyridine-5-carboxamide], the inhibition at 3 µM on RORγt [1] (Jurkat) turned out to be 104%. Besides, the inhibition at 1 µM at RORγt [2] was 102%; at RORγt [3], 100%; at RORγt [4] it was 101%.

Take `CCOc1ccc2c(c1)CCN(C(=O)Cc1cc(O)no1)[C@H]2C(=O)Nc1cc(F)c(C(C)(C)COCCOC)c(F)c1` [Example 143, (1R)-N-(3,5-difluoro-4-(1-(2-methoxyethoxy)-2-methylpropan-2-yl)phenyl)-6-ethoxy-2-((3-hydroxy-1,2-oxazol-5-yl)acetyl)-1,2,3,4-tetrahydroisoquinoline-1-carboxamide]: the inhibition at 3 µM at RORγt [1] (setting [5]) is 83%. The values for the inhibition at 1 µM on RORγt [2], on RORγt [3] and on RORγt [4] were 101%, 56% and 101%, respectively.

For the molecule `CCOc1ccc2c(n1)CCN(C(=O)Cc1cc(O)no1)[C@H]2C(=O)Nc1cc(F)c2c(c1)CCC2(C)C` [Example 147, (5R)-2-ethoxy-N-(7-fluoro-1,1-dimethyl-2,3-dihydro-1H-inden-5-yl)-6-((3-hydroxy-1,2-oxazol-5-yl)acetyl)-5,6,7,8-tetrahydro-1,6-naphthyridine-5-carboxamide], at RORγt [1] (setting [5]), the inhibition at 3 µM turned out to be 101%. Moreover, the inhibition at 1 µM on RORγt [2] was 101%; on RORγt [3], 89%; at RORγt [4], 101%.

For `CCOc1ccc2c(n1)CCN(C(=O)Cc1cc(O)no1)[C@H]2C(=O)Nc1ccc([Si](C)(C)C)c(F)c1` [Example 151, (5R)-2-ethoxy-N-(3-fluoro-4-(trimethylsilyl)phenyl)-6-((3-hydroxy-1,2-oxazol-5-yl)acetyl)-5,6,7,8-tetrahydro-1,6-naphthyridine-5-carboxamide], the inhibition at 3 µM at RORγt [1] (Jurkat) is 102%. Further, the inhibition at 1 µM on RORγt [2] amounted to 99%; on RORγt [3] it was 99%; at RORγt [4] it was 102%.

On to `CCOc1ccc2c(n1)CCN(C(=O)CCCC(=O)O)[C@H]2C(=O)Nc1ccc([Si](C)(C)C)c(F)c1` [Example 152, 5-((5R)-2-ethoxy-5-((3-fluoro-4-(trimethylsilyl)phenyl)carbamoyl)-7,8-dihydro-1,6-naphthyridin-6(5H)-yl)-5-oxopentanoic acid], for which, on RORγt [1] (Jurkat), the inhibition at 3 µM amounted to 103%. Also, the inhibition at 1 µM on RORγt [2] was 102%; at RORγt [3], 97%; at RORγt [4] it was 101%.

For the molecule `CCOc1ccc2c(c1)CCN(C(=O)CCCC(=O)O)[C@H]2C(=O)Nc1cc(F)c(C(C)(C)COCC(F)F)c(F)c1` [Example 153, 5-((1R)-1-((4-(1-(2,2-difluoroethoxy)-2-methylpropan-2-yl)-3,5-difluorophenyl)carbamoyl)-6-ethoxy-3,4-dihydroisoquinolin-2 (1H)-yl)-5-oxopentanoic acid], at RORγt [1] (setting [5]), the inhibition at 3 µM is 97%. Besides, the inhibition at 1 µM amounted to 100% on RORγt [2], 84% on RORγt [3] and 102% at RORγt [4].
